Laboratory results: US9403808B2, “Pyrazine derivatives” (Hoffmann-La Roche Inc., priority 2011, dated 2016)

Tests used:
human CB2 receptors = human CB2 receptors (Homo sapiens (Human), UniProt P34972); test: functional cAMP assay, CB2; format: cell-based; details: functional cAMP assay, CHO cells expressing human CB2; read-out: human CB2 EC50
In short: (§1)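 CHO cells expressing human CB1 or CB2 were preincubated 30 min at 30 °C in Krebs Ringer bicarbonate buffer with 1 mM IBMX, then exposed to compound for 30 min at 30 °C. cAMP was measured by TR-FRET (cAMP-Nano-TRF) against a 10 μM–0.13 nM cAMP standard curve, and EC50 values were derived.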

human CB1 receptors = human CB1 receptors (Homo sapiens (Human), UniProt P21554); test: functional cAMP assay, CB1; format: cell-based; details: functional cAMP assay, CHO cells expressing human CB1; read-out: human CB1 EC50
human CB1 receptors, sequence (P21554 whole entry): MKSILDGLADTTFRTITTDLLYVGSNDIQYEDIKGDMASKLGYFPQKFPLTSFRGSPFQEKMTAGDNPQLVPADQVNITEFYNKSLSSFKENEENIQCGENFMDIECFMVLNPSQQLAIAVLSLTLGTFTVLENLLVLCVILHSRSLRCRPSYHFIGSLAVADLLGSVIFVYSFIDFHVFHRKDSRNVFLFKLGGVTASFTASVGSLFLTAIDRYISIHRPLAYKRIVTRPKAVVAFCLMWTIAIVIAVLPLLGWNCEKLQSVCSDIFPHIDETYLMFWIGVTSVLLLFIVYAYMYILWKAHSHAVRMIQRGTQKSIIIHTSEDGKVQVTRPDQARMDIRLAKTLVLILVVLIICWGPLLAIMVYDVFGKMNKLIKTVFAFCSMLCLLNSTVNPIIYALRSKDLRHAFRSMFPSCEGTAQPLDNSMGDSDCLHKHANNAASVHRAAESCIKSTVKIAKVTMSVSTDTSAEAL
In short: as §1

human CB2 receptors, sequence (P34972 whole entry): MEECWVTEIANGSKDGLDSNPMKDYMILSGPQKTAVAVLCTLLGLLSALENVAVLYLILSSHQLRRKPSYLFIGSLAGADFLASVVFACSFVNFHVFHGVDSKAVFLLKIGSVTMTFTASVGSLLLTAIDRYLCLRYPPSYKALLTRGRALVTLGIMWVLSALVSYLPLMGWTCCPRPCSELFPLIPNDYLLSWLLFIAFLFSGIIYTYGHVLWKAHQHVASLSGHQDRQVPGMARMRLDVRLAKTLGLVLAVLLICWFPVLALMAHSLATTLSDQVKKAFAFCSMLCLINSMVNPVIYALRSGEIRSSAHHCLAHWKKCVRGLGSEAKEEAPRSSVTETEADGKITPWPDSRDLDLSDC

## C[C@@](NC(=O)c1cnc(N2CC(F)(F)C2)c(OCC2CC2)n1)(C(N)=O)c1ccccc1 [Example 59, 6-Cyclopropylmethoxy-5-(3,3-difluoro-azetidin-1-yl)-pyrazine-2-carboxylic acid ((S)-1-carbamoyl-1-phenyl-ethyl)-amide]
Human CB2 receptors
  EC50: 49.2 nM
Human CB1 receptors
  EC50: > 10000 nM

## Cc1nc(C(C)(CC2CC2)NC(=O)c2cnc(N3CC(F)(F)C3)c(OCC3CC3)n2)no1 (centres unmarked) [Example 60, 6-Cyclopropylmethoxy-5-(3,3-difluoro-azetidin-1-yl)-pyrazine-2-carboxylic acid [2-cyclopropyl-1-methyl-1-(5-methyl-[1,2,4]oxadiazol-3-yl)-ethyl]-amide]
Human CB2 receptors
  EC50: 14.6 nM
Human CB1 receptors
  EC50: > 10000 nM

## Cc1nc(C(C)(NC(=O)c2cnc(N3CC(F)(F)C3)c(OCC3CC3)n2)C2CC2)no1 (centres unmarked) [Example 61, 6-Cyclopropylmethoxy-5-(3,3-difluoro-azetidin-1-yl)-pyrazine-2-carboxylic acid [1-cyclopropyl-1-(5-methyl-[1,2,4]oxadiazol-3-yl)-ethyl]-amide]
Human CB2 receptors
  EC50: 17.9 nM
Human CB1 receptors
  EC50: > 10000 nM

## Cc1nc(C(C)(NC(=O)c2cnc(C3CC3)c(OCC3CC3)n2)C2CC2)no1 (centres unmarked) [Example 62, 5-Cyclopropyl-6-cyclopropylmethoxy-pyrazine-2-carboxylic acid [1-cyclopropyl-1-(5-methyl-[1,2,4]oxadiazol-3-yl)-ethyl]-amide]
Human CB2 receptors
  EC50: 22.8 nM
Human CB1 receptors
  EC50: 1650 nM

## COC(=O)C(C)(NC(=O)c1cnc(N2CC(F)(F)C2)c(OCC2CC2)n1)C1CC1 (centres unmarked) [Example 80, 2-Cyclopropyl-2-{[6-cyclopropylmethoxy-5-(3,3-difluoro-azetidin-1-yl)-pyrazine-2-carbonyl]-amino}-propionic acid methyl ester]
Human CB2 receptors
  EC50: 0.7 nM
Human CB1 receptors
  EC50: > 10000 nM

## NC(=O)CC1(NC(=O)c2cnc(C3CC3)c(OCC3CC3)n2)COC1 [Example 84, 5-Cyclopropyl-6-cyclopropylmethoxy-pyrazine-2-carboxylic acid (3-carbamoylmethyl-oxetan-3-yl)-amide]
Human CB2 receptors
  EC50: 14.6 nM
Human CB1 receptors
  EC50: > 10000 nM

## NC(=O)CC1(NC(=O)c2cnc(N3CC(F)(F)C3)c(OCC3CC3)n2)COC1 [Example 85, 6-Cyclopropylmethoxy-5-(3,3-difluoro-azetidin-1-yl)-pyrazine-2-carboxylic acid (3-carbamoylmethyl-oxetan-3-yl)-amide]
Human CB2 receptors
  EC50: 5.8 nM
Human CB1 receptors
  EC50: > 10000 nM

## Cc1nc([C@@](C)(NC(=O)c2cnc(N3CC(F)(F)C3)c(OCC3CC3)n2)C2CC2)no1 [Example 86, (+)-6-Cyclopropylmethoxy-5-(3,3-difluoro-azetidin-1-yl)-pyrazine-2-carboxylic acid [1-cyclopropyl-1-(5-methyl-[1,2,4]oxadiazol-3-yl)-ethyl]-amide]
Human CB2 receptors
  EC50: 23.7 nM
Human CB1 receptors
  EC50: > 10000 nM

## Cc1nc([C@](C)(NC(=O)c2cnc(N3CC(F)(F)C3)c(OCC3CC3)n2)C2CC2)no1 [Example 87, (−)-6-Cyclopropylmethoxy-5-(3,3-difluoro-azetidin-1-yl)-pyrazine-2-carboxylic acid [1-cyclopropyl-1-(5-methyl-[1,2,4]oxadiazol-3-yl)-ethyl]-amide]
Human CB2 receptors
  EC50: 13.2 nM
Human CB1 receptors
  EC50: > 10000 nM

## CC(C)C(NC(=O)c1cnc(N2CC(F)(F)C2)c(OCC2CC2)n1)C(N)=O (centres unmarked) [Example 88, 6-Cyclopropylmethoxy-5-(3,3-difluoro-azetidin-1-yl)-pyrazine-2-carboxylic acid (1-carbamoyl-2-methyl-propyl)-amide]
Human CB2 receptors
  EC50: 79.1 nM
Human CB1 receptors
  EC50: > 10000 nM

## NC(=O)C1(NC(=O)c2cnc(N3CC(F)(F)C3)c(OCC3CC3)n2)CCCCC1 [Example 89, 6-Cyclopropylmethoxy-5-(3,3-difluoro-azetidin-1-yl)-pyrazine-2-carboxylic acid (1-carbamoyl-cyclohexyl)-amide]
Human CB2 receptors
  EC50: 70.6 nM
Human CB1 receptors
  EC50: > 10000 nM

## CC(C)C(NC(=O)c1cnc(N2CC(F)(F)C2)c(OCC2CC2)n1)C(=O)N(C)C (centres unmarked) [Example 91, 6-Cyclopropylmethoxy-5-(3,3-difluoro-azetidin-1-yl)-pyrazine-2-carboxylic acid (1-dimethylcarbamoyl-2-methyl-propyl)-amide]
Human CB2 receptors
  EC50: 20.5 nM
Human CB1 receptors
  EC50: > 10000 nM

## CC(C)C(NC(=O)c1cnc(C2CC2)c(OCC2CC2)n1)C(=O)N(C)C (centres unmarked) [Example 92, 5-Cyclopropyl-6-cyclopropylmethoxy-pyrazine-2-carboxylic acid (1-dimethylcarbamoyl-2-methyl-propyl)-amide]
Human CB2 receptors
  EC50: 8.6 nM
Human CB1 receptors
  EC50: > 10000 nM

## O=C(Nc1ccc(Cl)s1)c1cnc(N2CC(F)(F)C2)c(OCC2CC2)n1 [Example 93, 6-Cyclopropylmethoxy-5-(3,3-difluoro-azetidin-1-yl)-pyrazine-2-carboxylic acid (5-chloro-thiophen-2-yl)-amide]
Human CB2 receptors
  EC50: 74.1 nM
Human CB1 receptors
  EC50: > 10000 nM

## O=C(NC1(CO)CCCCC1)c1cnc(C2CC2)c(OCC2CC2)n1 [Example 94, 5-Cyclopropyl-6-cyclopropylmethoxy-pyrazine-2-carboxylic acid (1-hydroxymethyl-cyclohexyl)-amide]
Human CB2 receptors
  EC50: 12 nM
Human CB1 receptors
  EC50: > 10000 nM

## COCCC(C)(C)NC(=O)c1cnc(C2CC2)c(OCC2CC2)n1 [Example 95, 5-Cyclopropyl-6-cyclopropylmethoxy-pyrazine-2-carboxylic acid (3-methoxy-1,1-dimethyl-propyl)-amide]
Human CB2 receptors
  EC50: 22.4 nM
Human CB1 receptors
  EC50: > 10000 nM

## CN(C)C(=O)C(CC1CCC1)NC(=O)c1cnc(N2CC(F)(F)C2)c(OCC2CC2)n1 (centres unmarked) [Example 97, 6-Cyclopropylmethoxy-5-(3,3-difluoro-azetidin-1-yl)-pyrazine-2-carboxylic acid (2-cyclobutyl-1-dimethylcarbamoyl-ethyl)-amide]
Human CB2 receptors
  EC50: 20.4 nM
Human CB1 receptors
  EC50: > 10000 nM

## CNC(=O)C(CC1CCC1)NC(=O)c1cnc(C2CC2)c(OCC2CC2)n1 (centres unmarked) [Example 98, 5-Cyclopropyl-6-cyclopropylmethoxy-pyrazine-2-carboxylic acid (2-cyclobutyl-1-methylcarbamoyl-ethyl)-amide]
Human CB2 receptors
  EC50: 59.3 nM
Human CB1 receptors
  EC50: > 10000 nM

## COCCC(C)(C)NC(=O)c1cnc(N2CC(F)(F)C2)c(OCC2CC2)n1 [Example 99, 6-Cyclopropylmethoxy-5-(3,3-difluoro-azetidin-1-yl)-pyrazine-2-carboxylic acid (3-methoxy-1,1-dimethyl-propyl)-amide]
Human CB2 receptors
  EC50: 10.3 nM
Human CB1 receptors
  EC50: > 10000 nM

## O=C(NC(CO)CC1CCC1)c1cnc(N2CC(F)(F)C2)c(OCC2CC2)n1 (centres unmarked) [Example 100, 6-Cyclopropylmethoxy-5-(3,3-difluoro-azetidin-1-yl)-pyrazine-2-carboxylic acid (1-cyclobutylmethyl-2-hydroxy-ethyl)-amide]
Human CB2 receptors
  EC50: 7.3 nM
Human CB1 receptors
  EC50: > 10000 nM

## NC(=O)C(CC1CCC1)NC(=O)c1cnc(N2CC(F)(F)C2)c(OCC2CC2)n1 (centres unmarked) [Example 101, 6-Cyclopropylmethoxy-5-(3,3-difluoro-azetidin-1-yl)-pyrazine-2-carboxylic acid (1-carbamoyl-2-cyclobutyl-ethyl)-amide]
Human CB2 receptors
  EC50: 5.6 nM
Human CB1 receptors
  EC50: > 10000 nM

## CC(C)(CCc1ccccc1)NC(=O)c1cnc(N2CC(F)(F)C2)c(OCC2CC2)n1 [Example 102, 6-Cyclopropylmethoxy-5-(3,3-difluoro-azetidin-1-yl)-pyrazine-2-carboxylic acid (1,1-dimethyl-3-phenyl-propyl)-amide]
Human CB2 receptors
  EC50: 2.5 nM
Human CB1 receptors
  EC50: > 10000 nM
